Data taken from patent publication US10350308B2, “Molecular probes for imaging myelin” (priority 2010, dated 2019).
Entries after “also recorded” stand apart in the source; their conditions may differ.

Assays:
myelin [1] = experiment: In vivo NIRF imaging in shiverer mouse model; set-up: species or system shiverer mice and wild-type mice; details: for fluorescent intensities in the brain, shiverer versus wild-type mice / time of peak fluorescent signal in shiverer mice / average radiance in wild-type mice relative to shiverer mice: 0.1 mg/kg i.v.; for time of peak fluorescent signal in shiverer mice: brain; for average radiance in wild-type mice relative to shiverer mice: at 30 minutes, after deducting vehicle signals
Protocol: We then evaluated the pharmacokinetic profiles of CNIR in 3-month old female shiverer mice (n=3) and age-matched wild-type mice (n=2). The in vivo NIR imaging was conducted using the same dosage as in the hypermyelinated mouse model. The fluorescent signals were recorded at 2, 4, 6, 8, 10, 15, 20, 25, 30, 40, 50, 60, 70, 80, 90, 100, 110 and 120 min after i.v. injection of CNIR and the vehicle (0.05% DMSO/PBS (V/V)).

myelin [2] = experiment: In vivo NIRF imaging in hypermyelinated mouse model; set-up: species or system Plp-Akt-DD mice and wild-type mice; details: 0.1 mg/kg i.v.
Protocol: The in vivo Near-infrared fluorescence imaging was carried out using Xenogen IVIS Imaging System 200, (Caliper Life Science, Inc., Hopkinton, Mass.). To avoid the influence of the autofluorescence and light scattering due to the fur, all the mice were shaved before experiment. After the i.v. injection of CNIR 0.1 mg/kg, the mouse was anesthetized utilizing isoflurane gas, the mouse was positioned on the center of the stage (working temperature 20-40° C.). The Near-infrared images were acquired by Back-thinned, back-illuminated grade 1 CCD, which is thermoelectrically cooled to −90° C. ensuring low dark current and low noise. The fluorescent filter set for excitation was 705-780 nm, for emission was 810-885 nm. The experiments were controlled with Living Image 3.1 (Caliper Life Science. Inc., Hopkinton, Mass.). Lens: f/2. Field of view: 6.5 cm×6.5 cm. Imaging Pixels: 2048×2048. Exposure time: 0.5 s for all the images. The near-infrared images were evaluated by Living Image 3.1 (Caliper Life Science. Inc., Hopkinton, Mass.). All the images used photon as the unit for the quantification, and the images were shown as overlaid photograph with fluorescence. Statistical analysis was performed using two-tailed t-test with GraphPad Prism 5, (GraphPad Software, Inc., La Jolla, Calif.). CNIR (0.1 mg/kg) and vehicle (0.05% DMSO/PBS (V/V)) was first administered to the hypermyelinated mouse model through intravenous injected in the tail vein. The fluorescence signals were recorded at 2, 4, 6, 8, 10, 15, 20, 25, 30, 40, 50, 60, 70, 80, 90, 100, 110 and 120 min post injection. To exclude the influence of autofluorescence from the mouse tissues and impact from the solution, the vehicle (0.05% DMSO/PBS (V/V)) also injected and fluorescence was recorded at 2, 4, 6, 8, 10, 15, 20, 25, 30, 40, 50, 60, 70, 80, 90, 100, 110 and 120 min to compare with the CNIR solution (images not shown). […]

[3] = Brain permeability by co-registration of fluorescent and X-ray images; type: in vivo; details: 0.1 mg/kg i.v., 20 minutes post injection, wild-type mice
Protocol: The fur of the mouse was shaved to avoid the problem of autofluorescence. 20 minutes after the i.v. injection of CNIR 0.1 mg/kg, the mouse was anesthetized utilizing isoflurane gas. The mouse was positioned on the center of the platen and imaged via fluorescence (ex 760 em 790) and X-ray. Vertical Resolution: 885 ppi, horizontal Resolution: 885 ppi. To determine the brain permeability of CNIR, we administered CNIR to wild-type mice through intravenous injection in tail vein. At 20 minutes post injection of CNIR (0.1 mg/kg), both X-ray and fluorescent images of the mouse brain were acquired using KODAK In-Vivo Multispectral System FX (FIG. 3). Co-registration of high quality X-ray image and fluorescent image confirmed that the strong fluorescence was indeed emitted from inside the brain.

[4] = Fluorescent excitation and emission spectra; type: physicochemical; details: 100 nM in DMSO
Protocol: The fluorescent excitation and emission spectrum is recorded using Varian fluorescent spectroscopy at the concentration of […] in DMSO.
The excitation and emission spectra of CNP were recorded using Cary Eclipse Fluorescence Spectrophotometers (Varian, Inc.; Palo Alto, Calif.) at 25° C. in DMSO, at a concentration of 100 nM. The excitation and emission slits were 5 nm, the scan rate was 600 nm/min, and the data interval was 1 nm.

myelin sheaths = experiment: In vitro fluorescent tissue staining of mouse brain sections; type: binding; details: compared with MBP antibody
[5] = system: LPC induced demyelination lesion; experiment: CNP staining of rat brain sections after imaging in the focal demyelination model; type: binding; details: LPC-rats versus saline-rats, compared with Black-Gold II
Protocol: Focal demyelination of adult rat brain. Sprague Dawley female rats (Harlan Laboratory, Indianapolis, Ind.), 12 weeks of age, were used for this study. Animal surgery and care was performed in accordance with the Institutional Animal Care and Use Committee of Case Western Reserve University Animals were anesthetized using a mixture of ketamine hydrochloride (64.2 mg/kg), xylazine hydrochloride (12.9 mg/kg), and acepromazine (12.9 mg/kg) and positioned in a stereotaxic frame (Stoelting). […]
Fresh frozen section: Mice or rats were deeply anesthetized with isoflurane and perfused via the ascending aorta with PBS followed by 4% paraformaldehyde in PBS. […] Tissue from the midline of the brain containing the whole corpus callosum was selected for staining Stained sections were covered with fluorescence mounting medium (Vectashield; Vector Laboratories, Burlingame, Calif.) and stored at 4° C. for future analysis.
Fresh frozen sections with 20 μm thickness were incubated in 0.1% Triton-100 in 1×PBS for 10 min, which was followed by incubation in a solution of CNP (1 mM) in 1% DMSO/1×PBS for 30 min at room temperature. The fresh frozen sections were then washed three times for 5 min each with 1×PBS before cover-slipping with fluorescence mounting medium (Vectashield, Vector laboratories). […]

MBP = experiment: CNP staining followed by MBP antibody staining in the same brain tissue sections; type: binding, mouse; details: cerebellum, frontal cortex, caudate putamen; CNP 1 mM
Protocol: After incubation with 3% normal goat serum in 1×PBS for 60 min, the fresh frozen sections were immunostained overnight at 4° C. with purified SMI99 mouse monoclonal anti-MBP (Covance, Inc. Princeton, N.J.) 1:500 dilution in 3% normal goat serum in 1×PBS, followed by one hour incubation at room temperature with Fluorescein (FITC) AffiniPure Goat Anti-Mouse IgG (H=L) (Jackson ImmunoResearch Laboratories, Inc. West Grove, Pa.) 1:500 dilution, then rinsed in 1×PBS (2×5′). The stained sections were covered with fluorescence mounting medium (Vectashield, Vector laboratories). Images of the stained mouse brain sections were acquired on a Leica DM5000 inverted microscope (L5 filter, BP 527/30).
Fresh frozen sections with 20 μm thickness were incubated in 0.1% Triton-100 in 1×PBS for 10 min, which was followed by incubation in a solution of CNP (1 mM) in 1% DMSO/1×PBS for 30 min at room temperature. The fresh frozen sections were then washed three times for 5 min each with 1×PBS before cover-slipping with fluorescence mounting medium (Vectashield, Vector laboratories). Images of the stained mouse brain sections were acquired on a Leica DMI5000 inverted microscope (Y5 filter, BP 700/75).
To determine the exact binding sites of CNP, we compared both CNP and MBP staining conducted in the same brain tissue sections. […]

myelin [6] = experiment: In vivo microPET-MR imaging in focal demyelination rat model
Protocol: Focal demyelination of adult rat brain. Sprague Dawley female rats (Harlan Laboratory, Indianapolis, Ind.), 12 weeks of age, were used for this study. Animal surgery and care was performed in accordance with the Institutional Animal Care and Use Committee of Case Western Reserve University Animals were anesthetized using a mixture of ketamine hydrochloride (64.2 mg/kg), xylazine hydrochloride (12.9 mg/kg), and acepromazine (12.9 mg/kg) and positioned in a stereotaxic frame (Stoelting). A small incision was made in the scalp, and the corpus callosum was targeted using the following stereotaxic coordinates, relative to bregma: anterior-posterior, 0.0 mm; medial-lateral, 2.0; and dorsal-ventral, 3.4. A small hole was drilled in the skull, and a 26 S gauge needle attached to a 10 μl Hamilton Syringe was lowered into the corpus callosum according to the dorsal-ventral coordinate. A microinjector pump (Stoelting) controlled the infusion of 6 μl of lysolethicin (lysophosphatidyl chorine) or saline at a rate of 0.25 μl/min, after which the needle was left in place for 2 min to prevent liquid reflux out of the brain parenchyma. The incision was then closed using 5-0 Ethicon sutures, and the animals were allowed to recover on a heating pad. The imaging of demyelination of the rats and vehicles were performed 5 d after surgery. The rats were kept alive.
Animals were placed in a Concord R4 microPET scanner (Knoxyille, Tenn.) under anesthesia. After a 10 min transmission scan with a Co-57 source, 7.4 MBq of [11C]DAS were administered to each animal through a tail vein injection, which was immediately followed by dynamic acquisition for up to 90 min. A 2-D filtered back projection (FBP) algorithm was used for image reconstruction with a 256×256 pixel resolution per transverse slice. A total of 63 transverse slices were reconstructed with the field of view covering the head of the animals. Decay correction, attenuation correction and scatter correction were all performed during the image histogram and reconstruction processes.
All MR imaging experiments were performed on a Bruker Biospec 7.0T/30 cm MRI and Spectroscopy scanner (Bruker Biospin, Billerica, Mass.). The animal's head was positioned in a 72-mm volume ID cylindrical transceiver coil. […]
Coregistration of MRI and PET images, PET and CT images were conducted by using the MATLAB-based program COMKAT (Compartmental Model Kinetic Analysis Tool). […] After creating uniform images from the PET and MRI images, VOI (Volume of interest) and ROI (Region of interest) were defined and used to measure the radioactivity concentration in the corpus callosums of both hypomyelinated and wild type mice. […]
The radioactivity was decay-corrected and normalized by the body weight of the mice and the amount of [^11C] […]

[7] = corpus callosum, 0-60 min microPET

CCN1\C(=C/C=C/C=C/C=C/c2sc3ccccc3[n+]2CC)Sc2ccccc21.[I-] [CNIR, 3,3′Diethylthiatricarbocyanine iodide]
fluorescent intensities in the brain, shiverer versus wild-type mice (myelin [1]): significant different
time of peak fluorescent signal in shiverer mice (myelin [1]): 2 min
average radiance in wild-type mice relative to shiverer mice (myelin [1]): eightfold greater
fluorescent radiance / average fluorescent intensity in Plp-Akt-DD mice compared with wild-type mice (myelin [2]; 2-120 min post injection): much stronger; also recorded: higher
clearance in wild-type control mice (myelin [2]; brain fluorescence): fast clearance
clearance in hypermyelinated (Plp-Akt-DD) mice (myelin [2]; brain fluorescence, compared to WT): relatively slower clearance
brain permeability [3]: can readily penetrate the intact blood-brain barrier
maximal emission wavelength [4]: 797 nm
maximal excitation wavelength [4]: 782 nm
labeling of myelin sheaths in wild-type mouse brain sections (myelin sheaths; 1 μM, free floating sections): selectively labeled intact myelin sheaths

COc1cccc(CN2\C(=C/C=C/C=C/C=C/c3sc4ccccc4[n+]3Cc3cccc(OC)c3)Sc3ccccc32)c1.[Br-] [CNP]
fluorescent intensities in the brain, shiverer versus wild-type mice (myelin [1]): significantly different
time of peak fluorescent signal in shiverer mice (myelin [1]): 5 min
average radiance in wild-type mice relative to shiverer mice (myelin [1]): four fold greater
brain entry (myelin [1]; summary statement at the head of Example 1): readily enters the brain
detection of demyelination lesion in brain sections [5]: can detect the LPC induced demyelination lesion
antibody staining of MBP after CNP staining of the same section (MBP): significantly blocked
labeling of myelin sheaths in wild-type mouse brain sections (myelin sheaths; 100 μM, fresh frozen sections): bind specifically to myelin sheaths
labeling of myelin sheaths in wild-type and shiverer mouse brain sections (myelin sheaths; 1 mM, fresh frozen sections): selectively labeled intact myelin sheaths

COc1cccc(C[n+]2c(/C=C/C=C/C=C/C=C3/Sc4ccccc4N3Cc3cccc(O[11CH3])c3)sc3ccccc32)c1 [[^11C] CNP]
uptake in control rat brain compared with demyelinated rat brain (myelin [6]; corpus callosum ROI, 60 min microPET scan): significantly higher
average SUV in demyelinated region, lower than control myelinated region (myelin [6]; [7]): 40%
average SUV in demyelinated region, lower than remyelinated region (myelin [6]; [7]): 20%
localization in brain (myelin [6]; white matter versus gray matter): preferentially localizes in the myelin-rich white matter
